Reference: the NIST ThermoML archive (doi:10.1021/acs.jced.9b00283)
Numbers after ± are expanded uncertainties.

Assay: xn = mol fraction of the nth substance listed
Details: 100 kPa, Liquid, Pycnometric method

OCCCCCO [1,5-pentanediol] + CCn1cc[n+](C)c1.O=S(=O)([N-]S(=O)(=O)C(F)(F)F)C(F)(F)F
Details	molar volume [m3/mol]
298.15 K, x1 = 0.142	0.0002297 ± 1e-06
298.15 K, x1 = 0.995	0.0001075 ± 3.6e-06
303.15 K, x1 = 0.16	0.0002253 ± 1e-06
303.15 K, x1 = 0.992	0.0001086 ± 3.6e-06
308.15 K, x1 = 0.175	0.0002251 ± 1e-06
308.15 K, x1 = 0.987	0.0001088 ± 3.6e-06
313.15 K, x1 = 0.193	0.0002239 ± 1e-06
313.15 K, x1 = 0.982	0.0001095 ± 3.6e-06

OCCCO [propan-1,3-diol] + CCn1cc[n+](C)c1.O=S(=O)([N-]S(=O)(=O)C(F)(F)F)C(F)(F)F
Details	molar volume [m3/mol]
298.15 K, x1 = 0.208	0.0002153 ± 4e-07
298.15 K, x1 = 0.977	7.48e-05 ± 6e-07
303.15 K, x1 = 0.226	0.0002124 ± 4e-07
303.15 K, x1 = 0.974	7.55e-05 ± 6e-07
308.15 K, x1 = 0.234	0.0002114 ± 4e-07
308.15 K, x1 = 0.971	7.61e-05 ± 6e-07
313.15 K, x1 = 0.259	0.0002063 ± 6e-07
313.15 K, x1 = 0.971	7.6e-05 ± 8e-07

OCCCCCO [1,5-pentanediol] + CCn1cc[n+](C)c1.F[B-](F)(F)F
Details	molar volume [m3/mol]
303.15 K, x1 = 0.129	0.0001423 ± 4e-07
303.15 K, x1 = 0.982	0.0001069 ± 8e-07
308.15 K, x1 = 0.151	0.0001416 ± 4e-07
308.15 K, x1 = 0.977	0.0001075 ± 8e-07
313.15 K, x1 = 0.183	0.0001412 ± 4e-07
313.15 K, x1 = 0.97	0.0001062 ± 8e-07
318.15 K, x1 = 0.231	0.0001381 ± 6e-07
318.15 K, x1 = 0.969	0.0001064 ± 8e-07

OCCCCO [1,4-butanediol] + CCn1cc[n+](C)c1.O=S(=O)([N-]S(=O)(=O)C(F)(F)F)C(F)(F)F
Details	molar volume [m3/mol]
298.15 K, x1 = 0.177	0.0002253 ± 4e-07
298.15 K, x1 = 0.971	9.23e-05 ± 6e-07
303.15 K, x1 = 0.189	0.0002241 ± 6e-07
303.15 K, x1 = 0.968	9.31e-05 ± 1.4e-06
308.15 K, x1 = 0.217	0.00022 ± 6e-07
308.15 K, x1 = 0.962	9.36e-05 ± 1.4e-06
313.15 K, x1 = 0.233	0.0002181 ± 4e-07
313.15 K, x1 = 0.958	9.29e-05 ± 1.4e-06

OCCCCO [1,4-butanediol] + CCn1cc[n+](C)c1.F[B-](F)(F)F
Details	molar volume [m3/mol]
298.15 K, x1 = 0.19	0.0001368 ± 6e-07
298.15 K, x1 = 0.978	9.18e-05 ± 4e-07
303.15 K, x1 = 0.24	0.0001346 ± 6e-07
303.15 K, x1 = 0.962	9.26e-05 ± 4e-07
308.15 K, x1 = 0.251	0.0001345 ± 6e-07
308.15 K, x1 = 0.957	9.33e-05 ± 4e-07
313.15 K, x1 = 0.326	0.0001286 ± 8e-07
313.15 K, x1 = 0.944	9.04e-05 ± 4e-07
